Results as given in the supplement of paper PMC6045584.

Legend:
Assay in all cases: area under dose-response curve of surviving fraction (unscaled, Aref=0) (surviving fraction x log10(nM)); higher = more resistant
Conditions in all cases: exposure time: 5 days; dose range 0.5-1000 nM
VISMODEGIB = compound: CS(=O)(=O)c1ccc(C(=O)Nc2ccc(Cl)c(-c3ccccn3)c2)c(Cl)c1 [VISMODEGIB]
In short: (§1)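 Three screens per tumour cell line were run in 384-well plates at eight inhibitor concentrations from 0.5 to 1000 nM over five days. Surviving fractions, from CellTiter-Glo luminescence normalised to DMSO-only wells, were fitted with 3-parameter logistic curves in the drc R package. The reported area under the curve is the unscaled activity area. It spans log10 dose, and Aref is 0.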

17-AAG = compound: C=CCNC1=C2C[C@@H](C)C[C@H](OC)[C@H](O)[C@@H](C)/C=C(\C)[C@H](OC(N)=O)[C@@H](OC)/C=C\C=C(/C)C(=O)NC(=CC1=O)C2=O [17-AAG]
In short: as §1

SALINOMYCIN = compound: CC[C@@H](C(=O)[C@@H](C)[C@@H](O)[C@H](C)[C@@H]1O[C@@H]([C@@H](CC)C(=O)O)CC[C@@H]1C)[C@H]1O[C@]2(C=C[C@@H](O)[C@]3(CC[C@@](C)([C@H]4CC[C@](O)(CC)[C@H](C)O4)O3)O2)[C@H](C)C[C@@H]1C [SALINOMYCIN]
In short: as §1

Row | Test System | area under dose-response curve (VISMODEGIB) | area under dose-response curve (17-AAG) | area under dose-response curve (SALINOMYCIN)
1 | G292 BONE | 3.2 | 1.84 | 2.65
2 | HCC38 BREAST | 2.67 | 0.903 | 2.83
3 | HCC70 BREAST | 3.57 | 1.53 | 2.56
4 | HMLE3 BREAST | 3.06 | 1.61 | 2.7
5 | HS578T BREAST | 3.11 | 1.45 | 2.87
